Experiments:
in vitro = details: human
Method: The toxicity of the compounds at the same concentration was tested on the same cells in parallel.
Cytotoxic effects were evaluated on uninfected cells using the WST-8 assay (Orangu, Cell Guidance Systems, Cambridge, UK) and the crystal violet assay [23]. […] Huh-7, MDCK, and Vero TMPRSS cells were seeded at 1 × 10^4, 1.5 × 10^4, and 1.2 × 10^4 cells/well, respectively, and incubated for 48 h (Huh-7 and MDCK) or 24 h (VERO TMPRSS), following conditions matching those of the corresponding antiviral assays in terms of timing and culture medium. At the end of incubation, the medium was replaced with a 10% WST-8 solution in DMEM and incubated for 1 h at 37 °C. Optical density (OD) was then measured at 450 nm using a Varioskan LUX plate reader (ThermoFisher Scientific, Milano, Italy). Subsequently, cells were fixed with 4% buffered formalin solution (Merck®, Darmstadt, Germany), stained with 1% crystal violet (Merck®, Darmstadt, Germany), and the dye was solubilized in 30% acetic acid for 30 min under shaking. OD was then measured at 595 nm as an additional readout of cell viability. The percentage of viability at each concentration was calculated using the formula:% viability = 100 × (ODcompound/ODuntreated control) where ODcompound and ODuntreated are the OD of the cells treated with compound or DMSO, respectively.
The CC50 value was determined by nonlinear regression analysis on GraphPad Prism 7 (San Diego, CA, USA).

[1] = test system: HL-60(TB) (leukemia cell line); assay: NCI-60 five-dose assay; format: cell-based, human; details: five doses (10^−4–10^−8 M), read-out: Growth inhibition 50 (GI50)
[2] = test system: K-562 (leukemia cell line); assay: NCI-60 five-dose assay; format: cell-based, human; details: five doses (10^−4–10^−8 M), read-out: Growth inhibition 50 (GI50)
[3] = test system: MOLT-4 (leukemia cell line); assay: NCI-60 five-dose assay; format: cell-based, human; details: five doses (10^−4–10^−8 M), read-out: Growth inhibition 50 (GI50)
[4] = test system: RPMI-8226 (leukemia cell line); assay: NCI-60 five-dose assay; format: cell-based, human; details: five doses (10^−4–10^−8 M), read-out: Growth inhibition 50 (GI50)
SR (leukemia cell line) = assay: NCI-60 five-dose assay; format: cell-based, human; details: five doses (10^−4–10^−8 M), read-out: Growth inhibition 50 (GI50)
[5] = test system: HCC-2998 (colon cancer cell line); assay: NCI-60 five-dose assay; format: cell-based, human; details: five doses (10^−4–10^−8 M), read-out: Growth inhibition 50 (GI50)
[6] = test system: HOP-92 (non-small cell lung cancer); assay: NCI-60 five-dose assay; format: cell-based, human; details: five-dose screen
Description: (§1) We first evaluated the cytotoxic activity of tricyclic-pyrrole carboxamides 1–20 using the NCI-60 cell line panel, representing nine different human cancers: leukemia, melanoma, and cancers of the lung, colon, central nervous system (CNS), ovary, kidney, prostate, and breast (the one-dose graph for compounds 1–20 is reported in Supplementary Materials, Figures S43–S62). Compounds 1, 5, 10, 11, 17, and 20 satisfied pre-determined threshold inhibition criteria in a minimum number of cell lines; therefore, they were also tested in the full five-dose assay (Figures S63–S68 in the Supplementary Materials).
(§2) Due to these preliminary results, six compounds, 1, 5, 10, 11, 17, and 20, were selected for the five-dose screen NCI-programme against the same panel of tumour cell lines.

MCF-7 (breast cancer) = assay: NCI-60 five-dose assay; format: cell-based, human; details: five-dose screen
Description: as §1, §2

Colon Cancer panel = assay: NCI-60 five-dose assay, panel-level GI50 (mean graph midpoint, range); format: cell-based, human; details: Colon Cancer panel average; read-out: GI50 mean graph midpoint (MG_MID)
Method: as §2
(§3) Next, a mean graph midpoint (MG_MD) was calculated for compounds 1, 5, 10, 11, 17, and 20 and reported as waterfall graphs GI50, TGI, and LC50 in the Supplementary Materials (Figures S69–S86). In Table 9, we reported the average GI50 for the nine-cancer panels, underlining both the activity and selectivity for compounds 1, 10, 11, and 20.

Leukemia panel = assay: as above; format: cell-based, human; details: Leukemia panel average; read-out: GI50 mean graph midpoint (MG_MID)
Method: as §2, §3

Melanoma panel = assay: as above; format: cell-based, human; details: Melanoma panel average; read-out: GI50 mean graph midpoint (MG_MID)
Method: as §2, §3

Breast Cancer panel = assay: NCI-60 five-dose assay, panel-level GI50 (mean graph midpoint); format: cell-based, human; details: Breast Cancer panel average; read-out: GI50 mean graph midpoint (MG_MID)
Method: as §2, §3

CNS Cancer panel = assay: as above; format: cell-based, human; details: CNS Cancer panel average; read-out: GI50 mean graph midpoint (MG_MID)
Method: as §2, §3

[7] = test system: Non-Small Cell Lung Cancer panel; assay: as above; format: cell-based, human; details: Non-Small Cell Lung Cancer panel average; read-out: GI50 mean graph midpoint (MG_MID)
Method: as §2, §3

Ovarian Cancer panel = assay: as above; format: cell-based, human; details: Ovarian Cancer panel average; read-out: GI50 mean graph midpoint (MG_MID)
Method: as §2, §3

Prostate Cancer panel = assay: as above; format: cell-based, human; details: Prostate Cancer panel average; read-out: GI50 mean graph midpoint (MG_MID)
Method: as §2, §3

Renal Cancer panel = assay: as above; format: cell-based, human; details: Renal Cancer panel average; read-out: GI50 mean graph midpoint (MG_MID)
Method: as §2, §3

[8] = test system: NCI cancer panel (all cell lines); assay: NCI-60 five-dose assay, overall mean graph midpoint (MG_MID); format: cell-based, human; details: MG_MID over all panels; read-out: GI50 mean graph midpoint (MG_MID)
Method: as §2, §3

Vero TMPRSS cells = details: read-out: SARS‐CoV‐2/Vero TMPRSS CC50; preliminary screening (50, 5, 0.5 μM), Vero TMPRSS
M14 (melanoma cell line) = assay: NCI-60 five-dose assay; details: M14
[9] = test system: MDA-MB-435 (melanoma cell line); assay: NCI-60 five-dose assay; details: MDA-MB-435
[10] = test system: SK-MEL-28 (melanoma cell line); assay: NCI-60 five-dose assay; details: SK-MEL-28
[11] = test system: SK-MEL-5 (melanoma cell line); assay: NCI-60 five-dose assay; details: SK-MEL-5
[12] = test system: UACC-62 (melanoma cell line); assay: NCI-60 five-dose assay; details: UACC-62
MDCK cells = assay: Cytotoxicity on uninfected MDCK cells (WST-8, crystal violet); details: read-out: IAV/MDCK CC50; preliminary screening (50, 5, 0.5 μM), MDCK
[13] = read-out: Growth inhibition 50 (GI50), five doses (10^−4–10^−8 M)
[14] = read-out: LC50 (molar concentration leading to 50% net cell death)

Compound: O=C(NCCN1CCN(c2ccc(Cl)cc2)CC1)c1c(Cl)[nH]c2c1CCCc1ccccc1-2 [Compound 13]
- CC50 (in vitro): 62.2 µM

Compound: N-(3-(4-Benzylpiperazin-1-yl)propyl)-2-chloro-1,4,5,6-tetrahydrobenzo[6,7]cyclohepta[1,2-b]pyrrole-2-carboxamide [Compound 11]
- GI50 [1]: 2.92 µM
- GI50 [2]: 2.57 µM
- GI50 [3]: 2.69 µM
- GI50 [4]: 2.2 µM
- GI50 (SR (leukemia cell line)): 2.49 µM
- GI50 [5]: 1.73 µM
- GI50 [6]: 2.72 µM
- GI50 (MCF-7 (breast cancer)): 2.77 µM
- GI50 (Colon Cancer panel): 2.81 µM
- GI50 (Leukemia panel): 2.88 µM
- GI50 (Melanoma panel): 2.34 µM
- GI50 (Breast Cancer panel): 3.47 µM
- GI50 (CNS Cancer panel): 5.25 µM
- GI50 [7]: 7.08 µM
- GI50 (Ovarian Cancer panel): 7.94 µM
- GI50 (Prostate Cancer panel): 5.13 µM
- GI50 (Renal Cancer panel): 5.89 µM
- GI50 [8]: 4.47 µM
- CC50 (Vero TMPRSS cells): 15.4 µM
- TGI (molar concentration giving total growth inhibition) (M14 (melanoma cell line)): 3.55 µM
- GI50 (M14 (melanoma cell line); [13]): 1.83 µM
- CC50 (M14 (melanoma cell line); [14]): 6.92 µM
- TGI (molar concentration giving total growth inhibition) [9]: 7.41 µM
- GI50 [9, 13]: 2.59 µM
- CC50 [9, 14]: 30.2 µM
- TGI (molar concentration giving total growth inhibition) [10]: 3.31 µM
- GI50 [10, 13]: 1.75 µM
- CC50 [10, 14]: 6.16 µM
- TGI (molar concentration giving total growth inhibition) [11]: 3.09 µM
- GI50 [11, 13]: 1.72 µM
- CC50 [11, 14]: 5.62 µM
- TGI (molar concentration giving total growth inhibition) [12]: 9.77 µM
- GI50 [12, 13]: 2.55 µM
- CC50 [12, 14]: 31.6 µM
- CC50 (MDCK cells): 5.38 µM

Source: paper PMC12566046, “Arylpiperazinyl-Benzocycloheptapyrrole-Carboxamides Endowed with Dual Anticancer and Antiviral Activities” (Molecules, 2025)
